In one test the target is ROCK1 (Homo sapiens (Human), UniProt Q13464). Put plainly: ROCK assay (Caliper LABCHIP peptide phosphorylation), ROCK1.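 Also: Read-out is separation of phosphorylated from unphosphorylated peptide, with kinase activity inhibition computed at every concentration of a dose-response series.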 The format is biochemical. Conditions: 5 μM ATP, 1.5 μM peptide substrate.
The next test addresses ROCK2 (Homo sapiens (Human), UniProt O75116). As to the kind of experiment: ROCK assay (Caliper LABCHIP peptide phosphorylation), ROCK2.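 Also: reaction stopped with EDTA, then phosphorylated and unphosphorylated peptide resolved by microfluidic electrophoresis, kinase inhibition computed at each compound concentration in dose-response series, DMSO under 2%.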 The format is biochemical. Conditions: 5 μM ATP, 1.5 μM peptide substrate.

As a reminder, the IC50 is the point on the concentration scale where inhibition reaches its midpoint. Read a low IC50 as higher potency.

ROCK1, sequence (Q13464 whole entry, species assumed): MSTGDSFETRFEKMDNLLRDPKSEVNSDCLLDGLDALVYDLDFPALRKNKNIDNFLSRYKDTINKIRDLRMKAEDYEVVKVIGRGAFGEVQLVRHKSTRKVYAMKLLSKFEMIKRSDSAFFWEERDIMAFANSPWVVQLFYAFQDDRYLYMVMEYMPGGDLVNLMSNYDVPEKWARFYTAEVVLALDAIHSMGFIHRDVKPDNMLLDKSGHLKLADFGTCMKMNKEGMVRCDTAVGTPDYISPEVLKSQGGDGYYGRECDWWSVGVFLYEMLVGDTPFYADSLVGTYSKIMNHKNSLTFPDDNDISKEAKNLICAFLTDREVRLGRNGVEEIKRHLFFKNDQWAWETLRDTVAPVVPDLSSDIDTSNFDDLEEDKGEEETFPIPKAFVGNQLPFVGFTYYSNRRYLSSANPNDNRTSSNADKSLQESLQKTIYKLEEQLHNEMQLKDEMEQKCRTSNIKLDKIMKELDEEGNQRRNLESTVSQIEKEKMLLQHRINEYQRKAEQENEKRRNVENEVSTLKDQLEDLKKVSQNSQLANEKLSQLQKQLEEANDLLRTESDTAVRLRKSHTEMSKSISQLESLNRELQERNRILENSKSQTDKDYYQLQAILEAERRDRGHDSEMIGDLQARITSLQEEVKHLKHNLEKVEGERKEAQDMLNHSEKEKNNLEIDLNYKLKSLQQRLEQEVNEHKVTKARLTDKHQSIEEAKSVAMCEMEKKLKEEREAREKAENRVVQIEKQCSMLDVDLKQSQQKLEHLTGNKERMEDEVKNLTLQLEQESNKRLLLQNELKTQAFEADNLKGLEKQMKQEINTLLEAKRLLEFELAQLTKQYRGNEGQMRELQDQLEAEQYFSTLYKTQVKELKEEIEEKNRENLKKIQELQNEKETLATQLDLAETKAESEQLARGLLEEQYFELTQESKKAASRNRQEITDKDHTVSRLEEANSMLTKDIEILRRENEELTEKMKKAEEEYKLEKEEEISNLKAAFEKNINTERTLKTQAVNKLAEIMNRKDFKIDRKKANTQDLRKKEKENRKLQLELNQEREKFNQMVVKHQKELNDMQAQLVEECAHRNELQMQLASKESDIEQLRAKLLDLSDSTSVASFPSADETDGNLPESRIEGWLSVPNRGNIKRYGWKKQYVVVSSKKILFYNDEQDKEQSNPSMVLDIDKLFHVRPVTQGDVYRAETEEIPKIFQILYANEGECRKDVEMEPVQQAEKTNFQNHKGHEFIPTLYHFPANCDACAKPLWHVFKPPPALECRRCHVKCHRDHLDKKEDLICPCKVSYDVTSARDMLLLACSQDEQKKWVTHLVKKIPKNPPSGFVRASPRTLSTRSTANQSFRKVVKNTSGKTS
ROCK2, sequence (O75116 whole entry, species assumed): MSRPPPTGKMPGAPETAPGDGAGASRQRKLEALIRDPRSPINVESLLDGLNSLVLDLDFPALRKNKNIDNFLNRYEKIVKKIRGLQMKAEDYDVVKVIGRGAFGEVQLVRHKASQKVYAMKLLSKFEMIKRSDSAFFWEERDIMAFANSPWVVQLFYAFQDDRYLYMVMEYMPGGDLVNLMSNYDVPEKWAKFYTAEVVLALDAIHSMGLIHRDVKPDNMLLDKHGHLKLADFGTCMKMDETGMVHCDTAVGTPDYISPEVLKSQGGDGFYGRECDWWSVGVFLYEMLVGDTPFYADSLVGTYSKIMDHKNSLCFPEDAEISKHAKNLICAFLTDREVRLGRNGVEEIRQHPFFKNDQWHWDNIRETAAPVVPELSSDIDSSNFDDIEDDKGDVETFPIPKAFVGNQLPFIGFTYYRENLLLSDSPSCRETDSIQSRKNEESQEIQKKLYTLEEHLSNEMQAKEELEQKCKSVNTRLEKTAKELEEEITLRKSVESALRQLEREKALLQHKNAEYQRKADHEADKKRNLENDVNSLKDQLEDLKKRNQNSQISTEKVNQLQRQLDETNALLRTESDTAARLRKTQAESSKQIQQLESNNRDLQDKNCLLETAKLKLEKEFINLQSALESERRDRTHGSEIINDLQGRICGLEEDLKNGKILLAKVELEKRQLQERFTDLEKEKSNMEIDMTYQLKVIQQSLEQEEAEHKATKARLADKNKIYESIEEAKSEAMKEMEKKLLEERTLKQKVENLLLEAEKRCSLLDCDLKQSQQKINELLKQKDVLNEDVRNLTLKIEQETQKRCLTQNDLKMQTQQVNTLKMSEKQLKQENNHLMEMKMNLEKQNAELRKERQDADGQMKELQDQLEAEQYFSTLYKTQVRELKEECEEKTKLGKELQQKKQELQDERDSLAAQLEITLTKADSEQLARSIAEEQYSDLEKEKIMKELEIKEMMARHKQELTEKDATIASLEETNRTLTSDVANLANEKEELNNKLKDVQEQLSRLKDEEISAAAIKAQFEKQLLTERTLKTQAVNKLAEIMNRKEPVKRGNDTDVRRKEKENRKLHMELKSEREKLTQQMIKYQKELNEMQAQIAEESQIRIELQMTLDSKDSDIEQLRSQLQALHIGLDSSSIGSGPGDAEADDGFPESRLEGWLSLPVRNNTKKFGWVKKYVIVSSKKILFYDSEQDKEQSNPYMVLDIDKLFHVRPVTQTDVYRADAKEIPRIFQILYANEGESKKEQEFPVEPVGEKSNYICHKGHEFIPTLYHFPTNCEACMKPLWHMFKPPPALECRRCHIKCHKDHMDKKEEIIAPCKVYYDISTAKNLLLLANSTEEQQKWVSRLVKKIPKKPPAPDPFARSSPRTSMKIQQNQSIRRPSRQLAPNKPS

As for `COc1cc(C(=O)NCc2cccc(C(=O)O)c2)ccc1-c1cn[nH]c1` [Example 64, 3-((3-Methoxy-4-(1H-pyrazol-4-yl)benzamido)methyl)benzoic acid], the figures for the IC50 against ROCK1 and at ROCK2 were 7.7 nM and 1.2 nM, respectively.

As for `COc1cc(C(=O)NCc2cccc(C(=O)N3CCCC3)c2)ccc1-c1cn[nH]c1` [Example 66, 3-methoxy-4-(1H-pyrazol-4-yl)-N-(3-(pyrrolidine-1-carbonyl)benzyl) benzamide], the half-inhibitory concentration (IC50) on ROCK1 was 64.3 nM; at ROCK2, 23.5 nM.

As for `COc1cc(C(=O)NCc2cc(F)ccc2F)ccc1-c1cn[nH]c1` [Example 69, N-(2,5-difluorobenzyl)-3-methoxy-4-(1H-pyrazol-4-yl)benzamide], the IC50 on ROCK1 was determined as 18.6 nM; against ROCK2, 5.2 nM.

With `COc1cc(C(=O)N(C)CCc2ccccc2)ccc1-c1cn[nH]c1` [Example 70, 3-methoxy-N-methyl-N-phenethyl-4-(1H-pyrazol-4-yl)benzamide], the IC50 against ROCK1 was determined as 379 nM; against ROCK2 it was 164 nM.

For the compound `COc1cc(C(=O)N(C)Cc2ccccc2)ccc1-c1cn[nH]c1` [Example 71, N-benzyl-3-methoxy-N-methyl-4-(1H-pyrazol-4-yl)benzamide], the values for the IC50 against ROCK1 and against ROCK2 were 1340 nM and 494 nM, respectively.

Take `COc1cc(C(=O)N[C@H](C)c2ccccc2)ccc1-c1cn[nH]c1` [Example 72, (R)-3-methoxy-N-(1-phenylethyl)-4-(1H-pyrazol-4-yl)benzamide]: the figures for the half-inhibitory concentration (IC50) on ROCK1 and against ROCK2 were 5.91 nM and 1.48 nM, respectively.

On to `COc1cc(C(=O)N[C@H](C)c2ccc(F)cc2)ccc1-c1cn[nH]c1` [Example 73, (R)-N-(1-(4-fluorophenyl)ethyl)-3-methoxy-4-(1H-pyrazol-4-yl)benzamide], for which the 50% inhibitory concentration (IC50) at ROCK1 is 9.03 nM; on ROCK2, 2.69 nM.

For `COc1cc(C(=O)N[C@H](C)c2ccc3ccccc3c2)ccc1-c1cn[nH]c1` [Example 74, (R)-3-methoxy-N-(1-(naphthalen-2-yl)ethyl)-4-(1H-pyrazol-4-yl)benzamide], the IC50 at ROCK1 was found to be 36.3 nM; on ROCK2, 9.18 nM.

As for `COc1cc(C(=O)NCc2cc(F)c(F)c(F)c2)ccc1-c1cn[nH]c1` [Example 75, 3-methoxy-4-(1H-pyrazol-4-yl)-N-(3,4,5-trifluorobenzyl) benzamide], the concentration for half-maximal inhibition (IC50) at ROCK1 was found to be 34.1 nM; at ROCK2 it was 8.26 nM.

For the compound `COc1cc(C(=O)NCc2cc(Cl)ccc2Cl)ccc1-c1cn[nH]c1` [Example 76, N-(2,5-dichlorobenzyl)-3-methoxy-4-(1H-pyrazol-4-yl)benzamide], the results for the IC50 against ROCK1 and against ROCK2 were 7.72 nM and 2.2 nM, respectively.

For `COc1cc(C(=O)NCc2ccc3nc(N)sc3c2)ccc1-c1cn[nH]c1` [Example 77, N-((2-aminobenzo[d]thiazol-6-yl)methyl)-3-methoxy-4-(1H-pyrazol-4-yl)benzamide], the values for the IC50 against ROCK1 and against ROCK2 were 1240 nM and 401 nM, respectively.

With `COc1cc(C(=O)NCc2cccc(OC(F)F)c2)ccc1-c1cn[nH]c1` [Example 78, N-(3-(difluoro-methoxy)benzyl)-3-methoxy-4-(1H-pyrazol-4-yl)benzamide], the results for the IC50 on ROCK1 and at ROCK2 were 21.8 nM and 3.94 nM, respectively.

With `COc1cc(C(=O)NCc2ccc(F)c(F)c2)ccc1-c1cn[nH]c1` [Example 79, N-(3,4-difluorobenzyl)-3-methoxy-4-(1H-pyrazol-4-yl)benzamide], the half-inhibitory concentration (IC50) turned out to be 22.8 nM against ROCK1 and 7.96 nM against ROCK2.

On to `COc1cc(C(=O)NCc2c(F)ccc(C)c2F)ccc1-c1cn[nH]c1` [Example 80, N-(2,6-difluoro-3-methylbenzyl)-3-methoxy-4-(1H-pyrazol-4-yl)benzamide], for which the IC50 against ROCK1 amounted to 13.2 nM; at ROCK2 it was 2.97 nM.

As for `COc1cc(C(=O)NCc2cc(F)ccc2Cl)ccc1-c1cn[nH]c1` [Example 82, N-(2-chloro-5-fluorobenzyl)-3-methoxy-4-(1H-pyrazol-4-yl)benzamide], the half-maximal inhibitory concentration (IC50) on ROCK1 stood at 9.89 nM; against ROCK2 it was 4.39 nM.

Regarding `COc1cc(C(=O)NCc2cccc(C(=O)NC3(C)CC3)c2)ccc1-c1cn[nH]c1` [Example 83, 3-methoxy-N-(3-((1-methylcyclopropyl)carbamoyl)benzyl)-4-(1H-pyrazol-4-yl)benzamide], the IC50 against ROCK1 turned out to be 3.16 nM; against ROCK2, 1.14 nM.

For `Cc1cc(C(=O)N[C@H](C)c2ccccc2)ccc1-c1cn[nH]c1` [Example 84, 3-Methyl-N-[(1R)-1-phenylethyl]-4-(1H-pyrazol-4-yl)benzamide], the half-maximal inhibitory concentration (IC50) against ROCK1 came to 11 nM; against ROCK2 it was 3.51 nM.

As for `COc1cc(C(=O)NCc2cccc(CN(C)C)c2)ccc1-c1cn[nH]c1` [Example 85, N-({3-[(dimethylamino)methyl]phenyl}methyl)-3-methoxy-4-(1H-pyrazol-4-yl)benzamide], the figures for the half-inhibitory concentration (IC50) at ROCK1 and against ROCK2 were 2510 nM and 474 nM, respectively.

For `COc1cc(C(=O)NCc2cccc3[nH]ncc23)ccc1-c1cn[nH]c1` [Example 86, N-(1H-indazol-4-ylmethyl)-3-methoxy-4-(1H-pyrazol-4-yl)benzamide], the 50% inhibitory concentration (IC50) came out at 41.8 nM against ROCK1 and 7.99 nM on ROCK2.

For `COc1cc(C(=O)NCc2cccc(N3CCCC3)c2)ccc1-c1cn[nH]c1` [Example 87, 3-methoxy-4-(1H-pyrazol-4-yl)-N-{[3-(pyrrolidin-1-yl)phenyl]methyl} benzamide], the IC50 is 724 nM at ROCK1 and 130 nM against ROCK2.

Regarding `COc1cc(C(=O)NCc2c(F)ccc(F)c2Cl)ccc1-c1cn[nH]c1` [Example 88, N-[(2-chloro-3,6-difluorophenyl)methyl]-3-methoxy-4-(1H-pyrazol-4-yl)benzamide], the results for the IC50 on ROCK1 and on ROCK2 were 8.46 nM and 3.99 nM, respectively.

Consider `COc1cc(C(=O)NCc2c(F)cc(F)cc2F)ccc1-c1cn[nH]c1` [Example 89, 3-methoxy-4-(1H-pyrazol-4-yl)-N-[(2,4,6-trifluorophenyl)methyl] benzamide], for which the IC50 came to 21.9 nM against ROCK1 and 11.1 nM against ROCK2.

Turning to `COc1cc(C(=O)NC(CCO)c2ccccc2)ccc1-c1cn[nH]c1` (centres unmarked) [Example 90, N-(3-hydroxy-1-phenylpropyl)-3-methoxy-4-(1H-pyrazol-4-yl)benzamide], the results for the 50% inhibitory concentration (IC50) at ROCK1 and against ROCK2 were 12.4 nM and 6.4 nM, respectively.

Take `COc1cc(C(=O)NCc2cc(F)cc(F)c2F)ccc1-c1cn[nH]c1` [Example 91, 3-methoxy-4-(1H-pyrazol-4-yl)-N-[(2,3,5-trifluorophenyl)methyl] benzamide]: the half-maximal inhibitory concentration (IC50) was 38.5 nM at ROCK1 and 7.66 nM at ROCK2.

In the case of `COc1cc(C(=O)NCc2ccc(Cl)cc2Cl)ccc1-c1cn[nH]c1` [Example 93, N-[(2,4-dichlorophenyl)methyl]-3-methoxy-4-(1H-pyrazol-4-yl)benzamide], the IC50 on ROCK1 was 99.3 nM; at ROCK2, 27.6 nM.

Turning to `COc1cc(C(=O)NCc2cccc(NS(C)(=O)=O)c2)ccc1-c1cn[nH]c1` [Example 94, N-[(3-methanesulfon-amidophenyl)methyl]-3-methoxy-4-(1H-pyrazol-4-yl)benzamide], the IC50 was found to be 24.6 nM against ROCK1 and 6.33 nM against ROCK2.

`COc1cc(C(=O)NCc2cccc(N(C)C)c2)ccc1-c1cn[nH]c1` [Example 95, N-{[3-(dimethylamino)phenyl]methyl}-3-methoxy-4-(1H-pyrazol-4-yl)benzamide]: the IC50 is 371 nM at ROCK1 and 47.6 nM against ROCK2.

On to `COc1cc(CNC(=O)c2ccc(-c3cn[nH]c3)c(OC)c2)ccc1F` [Example 96, N-[(4-fluoro-3-methoxyphenyl)methyl]-3-methoxy-4-(1H-pyrazol-4-yl)benzamide], for which the half-inhibitory concentration (IC50) on ROCK1 came out at 26 nM; against ROCK2, 2.41 nM.

Turning to `COc1cc(C(=O)NCc2c(F)ccc(F)c2F)ccc1-c1cn[nH]c1` [Example 97, 3-methoxy-4-(1H-pyrazol-4-yl)-N-[(2,3,6-trifluorophenyl)methyl] benzamide], the values for the IC50 against ROCK1 and on ROCK2 were 22.9 nM and 2.46 nM, respectively.

`COc1cc(C(=O)NCc2c(F)cccc2F)ccc1-c1cn[nH]c1` [Example 98, N-[(2,6-difluorophenyl)methyl]-3-methoxy-4-(1H-pyrazol-4-yl)benzamide]: the IC50 against ROCK1 turned out to be 17.8 nM; at ROCK2, 2.95 nM.

In the case of `COc1cc(C(=O)NCc2ccc(Cl)cc2F)ccc1-c1cn[nH]c1` [Example 99, N-[(4-chloro-2-fluorophenyl)methyl]-3-methoxy-4-(1H-pyrazol-4-yl)benzamide], the IC50 is 15.8 nM on ROCK1 and 1.36 nM against ROCK2.

For the compound `COc1cc(C(=O)NCc2cccc(N(C)C(C)=O)c2)ccc1-c1cn[nH]c1` [Example 100, 3-methoxy-N-{[3-(N-methyl-acetamido)phenyl]methyl}-4-(1H-pyrazol-4-yl)benzamide], the half-maximal inhibitory concentration (IC50) against ROCK1 turned out to be 4080 nM; at ROCK2, 299 nM.

For `COc1cc(C(=O)NC(C)c2ccc3c(c2)OCCO3)ccc1-c1cn[nH]c1` (centres unmarked) [Example 101, N-[1-(2,3-dihydro-1,4-benzodioxin-6-yl)ethyl]-3-methoxy-4-(1H-pyrazol-4-yl)benzamide], the IC50 against ROCK1 is 742 nM; at ROCK2, 189 nM.

As to `COc1cc(C(=O)NCc2ccc3[nH]c(=O)[nH]c3c2)ccc1-c1cn[nH]c1` [Example 102, 3-methoxy-N-[(2-oxo-2,3-dihydro-1H-1,3-benzodiazol-5-yl)methyl]-4-(1H-pyrazol-4-yl)benzamide], the IC50 on ROCK1 amounted to 3770 nM; against ROCK2 it was 662 nM.

Turning to `COc1cc(C(=O)NCc2ccc3sccc3c2)ccc1-c1cn[nH]c1` [Example 104, N-(1-benzothiophen-5-ylmethyl)-3-methoxy-4-(1H-pyrazol-4-yl)benzamide], the IC50 against ROCK1 came to 24.9 nM; at ROCK2, 9.44 nM.

For the compound `COc1cc(C(=O)NCc2c(F)cccc2Cl)ccc1-c1cn[nH]c1` [Example 105, N-[(2-chloro-6-fluorophenyl)methyl]-3-methoxy-4-(1H-pyrazol-4-yl)benzamide], the concentration for half-maximal inhibition (IC50) at ROCK1 was determined as 11.7 nM; against ROCK2, 3.59 nM.

For the compound `COc1cc(C(=O)N[C@H](C)c2ccc3c(c2)CCO3)ccc1-c1cn[nH]c1` [Example 106, N-[(1R)-1-(2,3-dihydro-1-benzofuran-5-yl)ethyl]-3-methoxy-4-(1H-pyrazol-4-yl)benzamide], the half-inhibitory concentration (IC50) at ROCK1 amounted to 50.1 nM; on ROCK2 it was 27 nM.
